Columns and labels:
[1] = tested on: M2 mutants and wild-type WSN-UdM viruses; conditions: cited from earlier work
[2] = tested on: M2 mutants and wild-type WSN-UdM viruses; type: cell-based, influenza A virus

NC12CC3CC(CC(C3)C1)C2 [amantadine]
concentrations at which the drug selectively inhibits viral replication ([1]; cell culture (Appleyard, 1977)): 0.1 to 5 µM
concentrations of nonspecific action (increase in pH of endosomes) ([1]; cell culture (Daniels et al., 1985)): > 50 μM
effect on yield and plaque size of wild-type WSN-UdM virus [2]: markedly reduced

— patent US10119124B2 (priority 2007, dated 2018)
